Key:
[1] = system: PMP22 mRNA; experiment: PMP22 mRNA level by quantitative RT-PCR after drug stimulation of rat Schwann cell primary culture; type: cell-based; parameters: key: +: significantly decreases PMP22 levels compared to control; conditions: rat primary Schwann cells, drug incubation 24 hrs
Protocol: After cells being platted in 12 well-dishes, the medium is replaced by a defined medium consisting in a mix of DMEM-F12 (Invitrogen #21331020) complemented by 1% of N2 supplement (Invitrogen #17502), 1% L-Glutamine (Invitrogen #25030024) 2.5% FBS (Sciencell #0025), 0.02 μg/ml of corticosterone (Sigma #C2505), 4 μM Forskolin and 50 μg/ml of gentamycin. Growth factors are not added to this medium, to promote SC differentiation
24 hours later, the medium is replaced by a defined medium (DMEM-F12) complemented with 1% Insulin-Transferrin-Selenium-X (ITS, Invitrogen #51300), 16 μg/ml of Putrescine (Sigma #P5780), 0.02 μg/ml of corticosterone and 50 μg/ml of gentamicin. At this step, neither progesterone nor forskolin are present in the medium.
One day later, Schwann cells are stimulated by combinations of drugs or drugs alone during 24 hrs (3 wells/condition). The preparation of each compound is performed just prior to its addition to the cell culture medium.
Drugs are added to a defined medium composed of DMEM-F12, with 1% Insulin-Transferrin-Selenium-X (ITS, Invitrogen #51300), 16 μg/ml of Putrescine, 0.02 μg/ml of corticosterone, 10 nM Progesterone and 50 μg/ml of gentamicin. The absence of Forskolin during drug stimulation avoids adenylate cyclase saturation.
Quantitative RT-PCR is used to compare the levels of PMP22 mRNA after drug stimulation, relative with housekeeping Ribosomal L13A mRNA in rat Schwann cell primary culture.
After rinsing with cold sterilized PBS, total RNAs from each cell sample are extracted and purified from SC using the Qiagen RNeasy micro kit (Qiagen #74004). Nucleic acids are quantified by Nanodrop spectrophotometer using 1 μl of RNA sample. The RNA integrity is determined through a BioAnalyzer (Agilent) apparatus.
RNAs are reverse-transcribed into cDNA according to standard protocol. cDNA templates for PCR amplification are synthesized from 200 ng of total RNA using SuperScript II reverse-transcriptase (Invitrogen #18064-014) for 60 min at 42° C. in the presence of oligo(dT), in a final volume of 20 μl.
cDNAs are subjected to PCR amplification using the ? LightCycler® 480 ? system (Roche Molecular Systems Inc.) Each cDNA are diluted five times before being used for PCR amplification. 2.5 μl of this cDNAs enters the PCR reaction solution (final volume of 10 μl). Preliminary experiments ensured that quantitation was done in the exponential phase of the amplification process for both sequences and that expression of the reference gene was uniform in the different culture conditions.
PCR reaction is performed by amplification of 500 nM of forward primer of rat PMP22 (NM_017037), 5-GGAAACGCGAATGAGGC-3 (SEQ ID NO: 1), and 500 nM of reverse primer 5-GTTCTGTTTGGTTTGGCTT-3 (SEQ ID NO: 2) (amplification of 148-bp). A 152-bp fragment of the RPL13A ribosomal (NM_173340) RNA is amplified in parallel in separate reactions for normalization of the results by using 500 nM of forward primer 5-CTGCCCTCAAGGTTGTG-3 (SEQ ID NO: 3), and 500 nM of reverse primer 5-[…]-3 (SEQ ID NO: 4).
We used FRET chemistry to perform RT-Q-PCR analysis. FRET probes are composed of 0.3 μM of Pmp22-FL-5-[…] (SEQ ID NO: 5) or Rpl13A-FL-5-TCGGGTGGAAGTACCAGCC (SEQ ID NO: 6), labelled at their 3′ end with a donor fluorophore dye (Fluorescein). 0.15 μM Red640 probes are defined as follows: Pmp22-red-5′-[…]- (SEQ ID NO: 7) or Rpl13A-red-5′-[…] (SEQ ID NO: 8), labelled at their 5′ end with an acceptor fluorophore dye (Rhodamine Red 640).
Each PCR reaction contained 2.5 μl cDNA template in a final volume of 10 μl of master mix kit (Roche #04-887301001).
The following PCR conditions are used: 10 sec at 95° C., 10 sec at 63° C. and 12 sec at 72° C. and 30 sec at 40° C. (Forty amplification cycles). The relative levels of PMP22 gene expression is measured by determining the ratio between the products generated from the target gene PMP22 and the endogenous internal standard RPL13A. […]

[2] = system: hemizygous PMP22 transgenic rat (CMT rat); experiment: Morphometrical analysis of hindlimb tissues and body weight in CMT rats; conditions: CMT female rats, end of study, versus control WT rats

SMILES | mRNA (PMP22 expression decrease) [1] | deficiencies of sciatic nerve and soleus muscle masses [2]
Cn1cc[nH]c1=S [Methimazole] | + | completely corrected
CC[C@@H]1C(=O)OC[C@@H]1Cc1cncn1C [Pilocarpine] | + | 

— patent US8992891B2, “Therapeutic approaches for treating CMT and related disorders” (Pharnext, priority 2007, dated 2015)
